Measurements published in patent US20070167430A1, “Compounds useful in therapy” (priority 2004, published 2007).

What follows are compounds tested against T1, human V1A receptor (Homo sapiens, UniProt P37288) (assay: V1A filter binding assay ([3H]-AVP binding to CHO-hV1A membranes)). Conditions: screen 1.0, [3H]-AVP displacement.
T1 construct: expressed in transfected cells
Experimental: 1.0 V1A Filter Binding Assay
Receptor binding assays were performed on cellular membranes prepared from CHO cells stably expressing the human V1A receptor, (CHO-hV1A). The CHO-hV1A cell line was kindly provided under a licensing agreement by Marc Thibonnier, Dept. of Medicine, Case Western Reserve University School of Medicine, Cleveland, Ohio. CHO-hV1A cells were routinely maintained at 37° C. in humidified atmosphere with 5% CO2 in DMEM/Hams F12 nutrient mix supplemented with 10% fetal bovine serum, 2 mM L-glutamine, 15 mM HEPES and 400 μg/ml G418. For bulk production of cell pellets, adherent CHO-hV1A cells were grown to confluency of 90-100% in 850 cm^2 roller bottles containing a medium of DMEM/Hams F12 Nutrient Mix supplemented with 10% fetal bovine serum, 2 mM L-glutamine and 15 mM HEPES. Confluent CHO-hV1A cells were washed with phosphate-buffered saline (PBS), harvested into ice cold PBS and centrifuged at 1,000 rpm. Cell pellets were stored at −80° C. until use. Cell pellets were thawed on ice and homogenised in membrane preparation buffer consisting of 50 mM Tris-HCl, pH 7.4, 5 mM MgCl2 and supplemented with a protease inhibitor cocktail, (Roche). The cell homogenate was centrifuged at 1000 rpm, 10 min, 4° C. and the supernatant was removed and stored on ice. The remaining pellet was homogenised and centrifuged as before. The supernatants were pooled and centrifuged at 25,000×g for 30 min at 4° C. The pellet was resuspended in freezing buffer consisting of 50 mM Tris-HCl, pH 7.4, 5 mM MgCl2 and 20% glycerol and stored in small aliquots at −80° C. until use. Protein concentration was determined using Bradford reagent and BSA as a standard.
Protein linearity followed by saturation binding studies were performed on each new batch of membrane. Membrane concentration was chosen that gave specific binding on the linear portion of the curve. Saturation binding studies were then performed using various concentrations of [^3H]-arginine vasopressin, [^3H]-AVP (0.05 nM-100 nM) and the Kd and Bmax determined.
Compounds were tested for their effects on [^3H]-AVP binding to CHO-hV1A membranes, (^3H-AVP; specific activity 65.5 Ci/mmol; NEN Life Sciences). Compounds were solubilised in dimethylsulfoxide (DMSO) and diluted to working concentration of 10% DMSO with assay buffer containing 50 mM Tris-HCL pH 7.4, 5 mM MgCl2 and 0.05% BSA. […] The binding reaction was initiated by the addition of 200 μl membrane and the plates were gently shaken for 60 min at room temperature. The reaction was terminated by rapid filtration using a Filtermate Cell Harvester (Packard Instruments) through a 96-well GF/B UniFilter Plate which had been presoaked in 0.5% polyethyleneimine to prevent peptide sticking. The filters were washed three times with 1 ml ice cold wash buffer containing 50 mM Tris-HCL pH 7.4 and 5 mM MgCl2. The plates were dried and 50 μl Microscint-0 (Packard instruments) was added to each well. The plates were sealed and counted on a TopCount Microplate Scintillation Counter (Packard Instruments). Non-specific binding (NSB) was determined using 1 μM unlabelled d(CH2)5Tyr(Me)AVP ([β-mercapto-β,β-cyclopentamethylenepropionyl,0-Me-Tyr^2,Arg^8]-vasopressin) (βMCPVP), (Sigma). The radioligand binding data was analysed using a four parameter logistic equation with the min forced to 0%. The slope was free fitted and fell between −0.75 and −1.25 for valid curves. Specific binding was calculated by subtracting the mean NSB cpm from the mean Total cpm. For test compounds the amount of ligand bound to the receptor was expressed as % bound=(sample cpm−mean NSB cpm)/specific binding cpm×100. The % bound was plotted against the concentration of test compound and a sigmoidal curve was fitted. The inhibitory dissociation constant (Ki) was calculated using the Cheng-Prusoff equation: Ki=IC50/(1+[L]/Kd) where [L] is the concentration of ligand present in the well and Kd is the dissociation constant of the radioligand obtained from Scatchard plot analysis. […]

T1 sequence (P37288 whole entry): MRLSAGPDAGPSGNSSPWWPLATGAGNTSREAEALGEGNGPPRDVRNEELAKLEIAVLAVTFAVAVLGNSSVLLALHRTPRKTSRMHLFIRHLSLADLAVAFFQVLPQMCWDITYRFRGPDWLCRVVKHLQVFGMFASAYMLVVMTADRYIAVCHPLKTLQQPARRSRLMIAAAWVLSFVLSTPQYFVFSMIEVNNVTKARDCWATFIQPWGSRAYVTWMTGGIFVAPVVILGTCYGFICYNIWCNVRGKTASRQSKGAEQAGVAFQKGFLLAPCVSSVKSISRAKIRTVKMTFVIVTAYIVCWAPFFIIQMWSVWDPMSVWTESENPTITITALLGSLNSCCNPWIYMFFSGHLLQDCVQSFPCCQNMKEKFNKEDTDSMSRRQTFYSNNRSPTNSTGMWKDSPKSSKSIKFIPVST

SMILES	Ki
CN1Cc2cc(Cl)ccc2-n2c(nnc2C2CCN(C(=O)c3c[nH]c4ccccc34)CC2)C1 [Example 1, [4-(8-Chloro-5-methyl-5,6-dihydro-4H-2,3,5,10b-tetraaza-benzo[e]azulen-1-yl)-piperidin-1-yl]-(1H-indol-3-yl)-methanone]	73.8 nM
Cc1ccccc1CC(=O)N1CCC(c2nnc3n2-c2ccc(Cl)cc2CN(C)C3)CC1 [Example 2, 1-[4-(8-Chloro-5-methyl-5,6-dihydro-4H-2,3,5,10b-tetraaza-benzo[e]azulen-1-yl)-piperidin-1-yl]-2-o-tolyl-ethanone]	35 nM
CN1Cc2cc(Cl)ccc2-n2c(nnc2C2CCN(C(=O)C3(C)CCCCC3)CC2)C1 [Example 9, [4-(8-Chloro-5-methyl-5,6-dihydro-4H-2,3,5,10b-tetraaza-benzo[e]azulen-1-yl)-piperidin-1-yl]-(1-methyl-cyclohexyl)-methanone]	59.9 nM
CN1Cc2cc(Cl)ccc2-n2c(nnc2C2CCN(C(=O)CC3CC3)CC2)C1 [Example 18, 1-[4-(8-Chloro-5-methyl-5,6-dihydro-4H-2,3,5,10b-tetraaza-benzo[e]azulen-1-yl)-piperidin-1-yl]-2-cyclopropyl-ethanone]	62.1 nM
CN1Cc2cc(Cl)ccc2-n2c(nnc2C2CCN(C(=O)c3cc4ccccc4[nH]3)CC2)C1 [Example 64, [4-(8-Chloro-5-methyl-5,6-dihydro-4H-2,3,5,10b-tetraaza-benzo[e]azulen-1-yl)-piperidin-1-yl]-(1H-indol-2-yl)-methanone]	34.7 nM
CN1Cc2cc(Cl)ccc2-n2c(nnc2C2CCN(C(=O)c3ccc4cc[nH]c4c3)CC2)C1 [Example 67, [4-(8-Chloro-5-methyl-5,6-dihydro-4H-2,3,5,10b-tetraaza-benzo[e]azulen-1-yl)-piperidin-1-yl]-(1H-indol-6-yl)-methanone]	15.9 nM
